Assay: solubility in solvents
Type: physicochemical
Conditions: in water, highly water-soluble organic solvents, and highly fat-soluble organic solvents; free form

solubility: easily soluble
Compound: COc1cc(C#Cc2nn([C@H]3CCNC3)c3ncnc(N)c23)cc(OC)c1 [compound B, (S)-3-((3,5-dimethoxyphenyl)ethynyl)-1-(pyrrolidin-3-yl)-1H-pyrazolo[3,4-d]pyrimidin-4-amine]

From US20210387990A1, “METHOD FOR PRODUCING DIMETHOXYBENZENE COMPOUND” (TAIHO PHARMACEUTICAL CO., LTD., priority 2018, published 2021)
